From paper PMC3969223, “Characterization of WZ4003 and HTH-01-015 as selective inhibitors of the LKB1-tumour-suppressor-activated NUAK kinases” (Biochemical Journal, 2013)

Key:
Experiment in all cases: Kinase profiling
Assay type in all cases: biochemical
Settings in all cases: 0.1 or 1 μM inhibitor; mean of triplicate
ZAP70 = ZAP70 (Homo sapiens, UniProt P43403)
How it was run: (§1)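 Screened in vitro against a 140-kinase panel with inhibitor at 0.1 or 1 μM. Values are percent of kinase activity remaining relative to DMSO control reactions, averaged from triplicate reactions ±S.D.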

EPH-A2 = EPH-A2 (Homo sapiens, UniProt P29317)
How it was run: as §1

PIM1 = PIM1 (Homo sapiens, UniProt P11309)
PAK4 = PAK4 (Homo sapiens, UniProt O96013)
YES1 = YES1 (Homo sapiens, UniProt P07947)
How it was run: as §1

PKCα = PKCα (Homo sapiens, UniProt P17252)
How it was run: as §1

EF2K = EF2K (Homo sapiens, UniProt O00418)
OSR1 = OSR1 (Homo sapiens, UniProt O95747)
How it was run: as §1

CDK9-Cyc T1 = CDK9-Cyc T1 (Homo sapiens, UniProt P50750)
CK1δ = CK1δ (Homo sapiens, UniProt P48730)
How it was run: as §1

JNK2 = JNK2 (Homo sapiens, UniProt P45984)
How it was run: as §1

p38γ MAPK = p38γ MAPK (Homo sapiens, UniProt P53778)
JNK3 = JNK3 (Homo sapiens, UniProt P53779)
How it was run: as §1

DAPK1 = DAPK1 (Homo sapiens, UniProt P53355)
How it was run: as §1

PDGFRA = PDGFRA (Homo sapiens, UniProt P16234)
How it was run: as §1

S6K1 = S6K1 (Homo sapiens, UniProt P23443)
How it was run: as §1

PRK2 = PRK2 (Homo sapiens, UniProt Q16513)
BRSK2 = BRSK2 (Homo sapiens, UniProt Q8IWQ3)
How it was run: as §1

HIPK2 = HIPK2 (Homo sapiens, UniProt Q9H2X6)
How it was run: as §1

IKKβ = IKKβ (Homo sapiens, UniProt O14920)
How it was run: as §1

EPH-B4 = EPH-B4 (Homo sapiens, UniProt P54760)
MARK2 = MARK2 (Homo sapiens, UniProt Q7KZI7)
How it was run: as §1

ERK8 = ERK8 (Homo sapiens, UniProt Q8TD08)
How it was run: as §1

p38δ MAPK = p38δ MAPK (Homo sapiens, UniProt O15264)
How it was run: as §1

SGK1 = SGK1 (Homo sapiens, UniProt O00141)
How it was run: as §1

MELK = MELK (Homo sapiens, UniProt Q14680)
How it was run: as §1

DYRK2 = DYRK2 (Homo sapiens, UniProt Q92630)
How it was run: as §1

TBK1 = TBK1 (Homo sapiens, UniProt Q9UHD2)
How it was run: as §1

CDK2-Cyclin A = CDK2-Cyclin A (Homo sapiens, UniProt P24941)
How it was run: as §1

TAK1 = TAK1 (Homo sapiens, UniProt O43318)
How it was run: as §1

ERK1 = ERK1 (Homo sapiens, UniProt P27361)
How it was run: as §1

PAK5 = PAK5 (Homo sapiens, UniProt Q9P286)
How it was run: as §1

GCK = GCK (Homo sapiens, UniProt Q12851)
TSSK1 = TSSK1 (Homo sapiens, UniProt Q9BXA7)
PIM3 = PIM3 (Homo sapiens, UniProt Q86V86)
How it was run: as §1

IRAK1 = IRAK1 (Homo sapiens, UniProt P51617)
How it was run: as §1

IR = IR (Homo sapiens, UniProt P06213)
How it was run: as §1

PKA = PKA (Homo sapiens, UniProt P17612)
How it was run: as §1

RSK1 = RSK1 (Homo sapiens, UniProt Q15418)
How it was run: as §1

JNK1 = JNK1 (Homo sapiens, UniProt P45983)
SmMLCK = SmMLCK (Homo sapiens, UniProt Q15746)
How it was run: as §1

ULK2 = ULK2 (Homo sapiens, UniProt Q8IYT8)
How it was run: as §1

Chain of PAK4 (O96013 whole entry): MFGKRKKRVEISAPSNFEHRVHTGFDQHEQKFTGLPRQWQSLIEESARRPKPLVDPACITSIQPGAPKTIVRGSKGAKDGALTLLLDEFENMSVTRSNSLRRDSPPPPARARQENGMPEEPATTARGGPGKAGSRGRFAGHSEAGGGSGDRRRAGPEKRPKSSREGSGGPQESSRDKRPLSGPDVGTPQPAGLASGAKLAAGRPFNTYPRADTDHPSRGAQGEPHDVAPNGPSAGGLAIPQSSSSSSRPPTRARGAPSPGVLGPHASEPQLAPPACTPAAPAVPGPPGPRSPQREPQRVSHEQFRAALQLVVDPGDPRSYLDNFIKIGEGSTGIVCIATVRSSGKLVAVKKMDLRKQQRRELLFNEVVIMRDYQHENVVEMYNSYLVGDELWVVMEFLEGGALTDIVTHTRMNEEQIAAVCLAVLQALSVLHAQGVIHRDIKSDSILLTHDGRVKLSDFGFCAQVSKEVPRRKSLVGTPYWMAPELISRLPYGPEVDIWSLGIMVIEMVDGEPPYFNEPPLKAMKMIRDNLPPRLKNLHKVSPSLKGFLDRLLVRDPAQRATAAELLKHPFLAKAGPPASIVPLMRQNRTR
Chain of GCK (Q12851 whole entry): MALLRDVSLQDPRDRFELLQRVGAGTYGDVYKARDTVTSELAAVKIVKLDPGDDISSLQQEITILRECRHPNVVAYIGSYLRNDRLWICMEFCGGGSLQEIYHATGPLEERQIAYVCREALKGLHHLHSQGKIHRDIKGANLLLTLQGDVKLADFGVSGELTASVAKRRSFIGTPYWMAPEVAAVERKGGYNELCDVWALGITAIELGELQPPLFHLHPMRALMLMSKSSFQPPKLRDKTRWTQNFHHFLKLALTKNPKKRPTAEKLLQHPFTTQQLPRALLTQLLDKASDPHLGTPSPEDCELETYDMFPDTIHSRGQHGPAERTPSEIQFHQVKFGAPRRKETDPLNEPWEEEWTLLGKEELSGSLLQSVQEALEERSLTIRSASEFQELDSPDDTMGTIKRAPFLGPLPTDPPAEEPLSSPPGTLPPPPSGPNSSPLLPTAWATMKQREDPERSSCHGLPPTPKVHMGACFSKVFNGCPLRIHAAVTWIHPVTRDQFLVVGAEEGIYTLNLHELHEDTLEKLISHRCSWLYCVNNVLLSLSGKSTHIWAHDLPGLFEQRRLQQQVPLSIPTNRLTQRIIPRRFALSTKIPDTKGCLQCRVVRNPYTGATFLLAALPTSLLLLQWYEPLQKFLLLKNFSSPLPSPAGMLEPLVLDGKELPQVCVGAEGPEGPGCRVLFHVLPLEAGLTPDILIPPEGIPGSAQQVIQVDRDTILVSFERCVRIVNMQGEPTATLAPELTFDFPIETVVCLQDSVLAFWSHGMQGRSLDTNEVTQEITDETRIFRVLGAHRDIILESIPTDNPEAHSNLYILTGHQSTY
Chain of EPH-B4 (P54760 16-987): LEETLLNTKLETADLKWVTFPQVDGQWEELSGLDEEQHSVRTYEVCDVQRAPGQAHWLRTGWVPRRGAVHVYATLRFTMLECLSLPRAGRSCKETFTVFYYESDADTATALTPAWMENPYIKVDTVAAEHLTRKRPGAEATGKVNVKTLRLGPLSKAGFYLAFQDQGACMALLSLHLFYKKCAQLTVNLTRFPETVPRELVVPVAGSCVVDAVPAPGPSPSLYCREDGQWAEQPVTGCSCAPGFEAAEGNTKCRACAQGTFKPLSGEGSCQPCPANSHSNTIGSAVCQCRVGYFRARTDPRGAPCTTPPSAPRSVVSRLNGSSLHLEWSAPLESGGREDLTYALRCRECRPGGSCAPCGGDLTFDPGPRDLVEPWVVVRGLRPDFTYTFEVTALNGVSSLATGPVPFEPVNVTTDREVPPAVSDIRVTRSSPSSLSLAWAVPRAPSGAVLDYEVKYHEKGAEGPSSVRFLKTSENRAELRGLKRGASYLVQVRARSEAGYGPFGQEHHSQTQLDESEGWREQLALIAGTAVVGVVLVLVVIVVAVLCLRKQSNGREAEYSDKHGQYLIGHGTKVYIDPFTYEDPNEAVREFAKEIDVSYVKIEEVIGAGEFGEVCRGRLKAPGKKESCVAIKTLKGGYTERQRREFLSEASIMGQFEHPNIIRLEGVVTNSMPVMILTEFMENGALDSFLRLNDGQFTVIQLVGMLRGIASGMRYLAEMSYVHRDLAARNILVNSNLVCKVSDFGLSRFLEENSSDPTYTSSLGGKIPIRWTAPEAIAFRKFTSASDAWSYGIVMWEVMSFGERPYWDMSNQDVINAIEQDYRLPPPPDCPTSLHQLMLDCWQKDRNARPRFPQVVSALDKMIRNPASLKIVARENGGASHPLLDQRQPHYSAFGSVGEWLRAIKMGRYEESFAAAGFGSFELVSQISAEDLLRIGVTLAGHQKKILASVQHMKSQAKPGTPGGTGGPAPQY
Chain of OSR1 (O95747 whole entry): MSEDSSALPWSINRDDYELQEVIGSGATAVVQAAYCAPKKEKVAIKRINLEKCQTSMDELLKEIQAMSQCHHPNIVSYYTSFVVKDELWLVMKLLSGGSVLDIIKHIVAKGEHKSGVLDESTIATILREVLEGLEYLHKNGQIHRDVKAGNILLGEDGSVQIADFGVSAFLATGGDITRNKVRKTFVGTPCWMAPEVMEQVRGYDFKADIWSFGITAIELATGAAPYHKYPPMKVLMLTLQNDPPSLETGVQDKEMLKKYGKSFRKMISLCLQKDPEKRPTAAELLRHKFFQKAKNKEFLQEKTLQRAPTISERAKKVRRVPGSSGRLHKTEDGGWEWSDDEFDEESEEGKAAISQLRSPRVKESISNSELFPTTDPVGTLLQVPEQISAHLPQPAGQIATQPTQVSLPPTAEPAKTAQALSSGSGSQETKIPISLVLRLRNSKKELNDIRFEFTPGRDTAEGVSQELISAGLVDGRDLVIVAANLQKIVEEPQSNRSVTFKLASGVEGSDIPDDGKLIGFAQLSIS
Chain of p38γ MAPK (P53778 whole entry): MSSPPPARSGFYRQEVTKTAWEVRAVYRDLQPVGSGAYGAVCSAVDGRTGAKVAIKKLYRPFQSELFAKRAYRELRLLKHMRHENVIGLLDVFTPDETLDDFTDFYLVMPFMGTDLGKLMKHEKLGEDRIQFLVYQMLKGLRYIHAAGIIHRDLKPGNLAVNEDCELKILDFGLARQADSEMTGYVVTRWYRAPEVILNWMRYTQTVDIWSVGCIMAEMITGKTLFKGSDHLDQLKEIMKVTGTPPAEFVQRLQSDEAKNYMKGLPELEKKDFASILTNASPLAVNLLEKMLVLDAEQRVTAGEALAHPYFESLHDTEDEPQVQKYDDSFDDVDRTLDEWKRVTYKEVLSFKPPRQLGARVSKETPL
Chain of JNK3 (P53779 whole entry): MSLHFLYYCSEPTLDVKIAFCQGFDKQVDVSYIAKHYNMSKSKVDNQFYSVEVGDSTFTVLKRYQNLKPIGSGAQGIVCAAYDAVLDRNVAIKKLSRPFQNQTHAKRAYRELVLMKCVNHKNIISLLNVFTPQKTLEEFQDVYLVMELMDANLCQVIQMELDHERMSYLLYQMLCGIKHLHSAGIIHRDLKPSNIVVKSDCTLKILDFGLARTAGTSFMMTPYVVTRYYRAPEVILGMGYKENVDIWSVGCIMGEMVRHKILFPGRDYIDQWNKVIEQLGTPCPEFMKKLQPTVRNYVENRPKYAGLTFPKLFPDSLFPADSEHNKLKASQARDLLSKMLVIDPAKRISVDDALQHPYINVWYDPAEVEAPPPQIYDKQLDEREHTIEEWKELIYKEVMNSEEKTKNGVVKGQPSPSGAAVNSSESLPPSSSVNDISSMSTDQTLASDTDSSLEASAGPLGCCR
Chain of ERK8 (Q8TD08 whole entry): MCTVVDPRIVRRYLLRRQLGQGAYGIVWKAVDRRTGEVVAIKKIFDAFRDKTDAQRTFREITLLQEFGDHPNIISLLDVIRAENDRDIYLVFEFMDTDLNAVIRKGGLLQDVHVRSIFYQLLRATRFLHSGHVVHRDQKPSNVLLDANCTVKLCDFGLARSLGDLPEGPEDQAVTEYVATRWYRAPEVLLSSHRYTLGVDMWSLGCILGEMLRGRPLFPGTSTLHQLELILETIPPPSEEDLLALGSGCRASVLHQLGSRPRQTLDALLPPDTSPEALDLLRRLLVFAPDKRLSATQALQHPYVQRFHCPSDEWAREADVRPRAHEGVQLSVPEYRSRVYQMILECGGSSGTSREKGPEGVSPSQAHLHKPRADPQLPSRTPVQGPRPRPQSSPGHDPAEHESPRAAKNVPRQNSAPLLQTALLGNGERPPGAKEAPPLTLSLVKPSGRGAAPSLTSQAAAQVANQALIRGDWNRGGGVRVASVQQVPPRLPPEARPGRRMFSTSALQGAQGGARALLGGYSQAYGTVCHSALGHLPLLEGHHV
Chain of TAK1 (O43318 1-303 limits assumed): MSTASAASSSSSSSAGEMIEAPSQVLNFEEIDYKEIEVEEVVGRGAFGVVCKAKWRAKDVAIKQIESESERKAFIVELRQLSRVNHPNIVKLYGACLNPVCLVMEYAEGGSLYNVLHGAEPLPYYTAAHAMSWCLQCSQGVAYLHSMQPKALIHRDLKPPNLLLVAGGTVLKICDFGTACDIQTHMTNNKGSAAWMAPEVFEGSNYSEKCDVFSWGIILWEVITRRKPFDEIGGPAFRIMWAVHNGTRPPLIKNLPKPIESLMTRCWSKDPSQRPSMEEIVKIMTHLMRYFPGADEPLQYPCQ
Chain of CK1δ (P48730 whole entry): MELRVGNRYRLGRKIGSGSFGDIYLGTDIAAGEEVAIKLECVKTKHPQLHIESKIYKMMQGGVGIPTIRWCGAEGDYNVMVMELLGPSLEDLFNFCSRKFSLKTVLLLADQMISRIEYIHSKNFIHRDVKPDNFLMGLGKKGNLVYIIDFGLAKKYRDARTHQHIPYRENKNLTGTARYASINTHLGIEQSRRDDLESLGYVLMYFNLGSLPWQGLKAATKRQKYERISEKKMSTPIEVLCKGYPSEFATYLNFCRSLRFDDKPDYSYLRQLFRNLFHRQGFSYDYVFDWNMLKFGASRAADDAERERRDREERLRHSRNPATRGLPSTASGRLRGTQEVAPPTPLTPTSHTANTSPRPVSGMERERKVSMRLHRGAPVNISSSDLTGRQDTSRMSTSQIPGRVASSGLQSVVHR

Cc1nc(Nc2cnn(C3CCNCC3)c2)nc2c1N(C)C(=O)c1cc3ccccc3cc1N2C [HTH-01-015]
ZAP70 activity, percentage of DMSO control (ZAP70): 103 percentage
EPH-A2 activity, percentage of DMSO control (EPH-A2): 84 percentage
PIM1 activity, percentage of DMSO control (PIM1): 92 percentage
PAK4 activity, percentage of DMSO control (PAK4): 110 percentage
YES1 activity, percentage of DMSO control (YES1): 76 percentage
PKCα activity, percentage of DMSO control (PKCα): 117 percentage
EF2K activity, percentage of DMSO control (EF2K): 103 percentage
OSR1 activity, percentage of DMSO control (OSR1): 107 percentage
CDK9-Cyc T1 activity, percentage of DMSO control (CDK9-Cyc T1): 68 percentage
CK1δ activity, percentage of DMSO control (CK1δ): 94 percentage
JNK2 activity, percentage of DMSO control (JNK2): 130 percentage
p38γ MAPK activity, percentage of DMSO control (p38γ MAPK): 100 percentage
JNK3 activity, percentage of DMSO control (JNK3): 101 percentage
DAPK1 activity, percentage of DMSO control (DAPK1): 100 percentage
PDGFRA activity, percentage of DMSO control (PDGFRA): 109 percentage
S6K1 activity, percentage of DMSO control (S6K1): 85 percentage
PRK2 activity, percentage of DMSO control (PRK2): 112 percentage
BRSK2 activity, percentage of DMSO control (BRSK2): 97 percentage
HIPK2 activity, percentage of DMSO control (HIPK2): 107 percentage
IKKβ activity, percentage of DMSO control (IKKβ): 81 percentage
EPH-B4 activity, percentage of DMSO control (EPH-B4): 102 percentage
MARK2 activity, percentage of DMSO control (MARK2): 99 percentage
ERK8 activity, percentage of DMSO control (ERK8): 98 percentage
p38δ MAPK activity, percentage of DMSO control (p38δ MAPK): 113 percentage
SGK1 activity, percentage of DMSO control (SGK1): 97 percentage
MELK activity, percentage of DMSO control (MELK): 99 percentage
DYRK2 activity, percentage of DMSO control (DYRK2): 113 percentage
TBK1 activity, percentage of DMSO control (TBK1): 112 percentage
CDK2-Cyclin A activity, percentage of DMSO control (CDK2-Cyclin A): 96 percentage
TAK1 activity, percentage of DMSO control (TAK1): 109 percentage
ERK1 activity, percentage of DMSO control (ERK1): 83 percentage
PAK5 activity, percentage of DMSO control (PAK5): 95 percentage
GCK activity, percentage of DMSO control (GCK): 126 percentage
TSSK1 activity, percentage of DMSO control (TSSK1): 95 percentage
PIM3 activity, percentage of DMSO control (PIM3): 97 percentage
IRAK1 activity, percentage of DMSO control (IRAK1): 103 percentage
IR activity, percentage of DMSO control (IR): 105 percentage
PKA activity, percentage of DMSO control (PKA): 101 percentage
RSK1 activity, percentage of DMSO control (RSK1): 93 percentage
JNK1 activity, percentage of DMSO control (JNK1): 100 percentage
SmMLCK activity, percentage of DMSO control (SmMLCK): 77 percentage

CCC(=O)Nc1cccc(Oc2nc(Nc3ccc(N4CCN(C)CC4)cc3OC)ncc2Cl)c1 [WZ4003]
ULK2 activity, percentage of DMSO control (ULK2): 37 percentage
